Assay results taken from patent publication US6451812B1, “Farnesyl protein transferase inhibitors for treating arthropathies” (Janssen Pharmaceutica N.V., priority 1998, dated 2002).

Tested on: DBA1/J mice
Experiment: Collagen type II induced arthritis, prophylactic treatment (Example 1)
Type: in vivo
Details: for Ankylosis score / Incidence of ankylosis (% of animals affected) / Incidence of arthritis (% of animals affected) / Mean Arthritic Score / Mean number of affected paws: 100 mpk (2 ×) orally, treated day 20-36
Protocol: Male DBA1/J mice were immunized intradermally with collagen type II emulsified in complete Freund's Adjuvant on day 0 and day 21. Treatment of mice was started on day 20 (10 animals/treatment group). Mice were treated orally twice daily (6 hours time interval) with vehicle [DMSO: cremophor: 0.9% NaCl solution, 1:1:8 (v:v:v)] or compound 75 at a dose of 100 mg/kg. Three times per week symptoms of arthritis were scored. Animals were treated till day 36, at day 37 animals were sacrificed, blood was collected for analysis of anti-collagen antibodies, radiographs were made and paws were fixed for histological evaluation. […] Trained lab personnel evaluated the severity and incidence of the arthritic symptoms at regular intervals without knowing which animals had received vehicle or drug.
In Table 9, the mean arthritic score is shown. For each paw, a score ranging from 0 (normal) to 2 (maximal redness and swelling) is given. The score for the 4 paws is summed up and averaged for the 10 animals per group (=Mean arthritic score).
Table 11 summarizes the results of the observations for the occurrence of ankylosis as the arthritis progresses. Each paw is scored as follows: 0 for no ankylosis, 1 for ankylosis. Again the results for the four paws are summed up and averaged for the 10 animals. At the end of the experiment, the ankylosis score in the vehicle group (3.1) is clearly higher than that in the group treated with Compound 75 (1.2).

[1] = 100 mg/kg orally twice daily, day 20-36
[2] = 100 mg/kg orally twice daily, versus vehicle

`Cn1cncc1C(N)(c1ccc(Cl)cc1)c1ccc2c(c1)c(-c1cccc(Cl)c1)cc(=O)n2C` (single isomer, unassigned; (+)) [Compound 75, (+)-6-[amino(4-chlorophenyl)(1-methyl-1H-imidazol-5-yl)methyl]-4-(3-chlorophenyl)-1-methyl-2(1H)-quinolinone] was tested, and the lethalities [1] was “no lethalities were observed”, the signs of toxicity [1] was “did not show any signs of toxicity” and the “effect on mean arthritic score (in words)” value [2] was “clearly suppresses the arthritic score”. The “effect on mean number of affected paws (in words)” value [2] was “reduces that number”, the “effect on mean arthritic score (in words)” value (100 mg/kg orally twice daily, versus vehicle, listed as compound 75) was “reduces the mean arthritic score” and the incidence of ankylosis (100 mg/kg orally twice daily, summary in text of Table 12) was 60%. The Ankylosis score (day 22 after immunization) was 0.00, the “Incidence of ankylosis (% of animals affected)” value (day 22 after immunization) was 0% and the “Incidence of arthritis (% of animals affected)” value (day 22 after immunization) was 0%. The “Mean Arthritic Score” value (day 22 after immunization) was 0.00, the “Mean number of affected paws” value (day 22 after immunization) was 0.00 and the Ankylosis score (day 24 after immunization) was 0.00. The “Incidence of ankylosis (% of animals affected)” value (day 24 after immunization) was 0%, the “Incidence of arthritis (% of animals affected)” value (day 24 after immunization) was 20% and the “Mean Arthritic Score” value (day 24 after immunization) was 0.05. For the same compound, the “Mean number of affected paws” value (day 24 after immunization) was 0.20, the Ankylosis score (day 27 after immunization) was 0.30 and the “Incidence of ankylosis (% of animals affected)” value (day 27 after immunization) was 10%. The “Incidence of arthritis (% of animals affected)” value (day 27 after immunization) was 40%, the “Mean Arthritic Score” value (day 27 after immunization) was 0.60 and the “Mean number of affected paws” value (day 27 after immunization) was 0.80. The Ankylosis score (day 29 after immunization) was 0.80, the “Incidence of ankylosis (% of animals affected)” value (day 29 after immunization) was 50% and the “Incidence of arthritis (% of animals affected)” value (day 29 after immunization) was 80%. For the same compound, the “Mean Arthritic Score” value (day 29 after immunization) was 0.90, the “Mean number of affected paws” value (day 29 after immunization) was 1.30 and the Ankylosis score (day 31 after immunization) was 1.10. The “Incidence of ankylosis (% of animals affected)” value (day 31 after immunization) was 50%, the “Incidence of arthritis (% of animals affected)” value (day 31 after immunization) was 70% and the “Mean Arthritic Score” value (day 31 after immunization) was 1.03. The “Mean number of affected paws” value (day 31 after immunization) was 1.70, the Ankylosis score (day 34 after immunization) was 1.20 and the “Incidence of ankylosis (% of animals affected)” value (day 34 after immunization) was 50%. For the same compound, the “Incidence of arthritis (% of animals affected)” value (day 34 after immunization) was 60%, the “Mean Arthritic Score” value (day 34 after immunization) was 0.80 and the “Mean number of affected paws” value (day 34 after immunization) was 1.20. The Ankylosis score (day 36 after immunization) was 1.40, the “Incidence of ankylosis (% of animals affected)” value (day 36 after immunization) was 60% and the “Incidence of arthritis (% of animals affected)” value (day 36 after immunization) was 70%. For the same compound, the “Mean Arthritic Score” value (day 36 after immunization) was 0.75, the “Mean number of affected paws” value (day 36 after immunization) was 1.30 and the Ankylosis score (day 37 after immunization (end of the experiment), 100 mg/kg) was 1.2. The “Incidence of ankylosis (% of animals affected)” value (day 37 after immunization) was 60%, the “Incidence of arthritis (% of animals affected)” value (day 37 after immunization) was 60% and the “Mean Arthritic Score” value (day 37 after immunization) was 0.80. For the same compound, the “Mean number of affected paws” value (day 37 after immunization) was 1.30.
